Data reported in ChEMBL document CHEMBL3046088, “Systemic effects of thiamethoxam and chlorantraniliprole seed treatments on adult Lissorhoptrus oryzophilus (Coleoptera: Curculionidae) in rice” (2013).
Activity calls are given as the source filed them. The calls are words filed in the database; no cut-off is given here.

Key:
[1] = system: Lissorhoptrus oryzophilus; test: Insecticidal activity against Lissorhoptrus oryzophilus in rice plants assessed as mortality at 100 ug treated as seed measured after 72 hr of feeding (reference value: 15 +/- 2.9%); type: functional
[2] = system: Lissorhoptrus oryzophilus; test: Insecticidal activity against Lissorhoptrus oryzophilus in rice plants assessed as mortality at 25 ug treated as seed measured after 72 hr of feeding (reference value: 15 +/- 2.9%); type: functional
[3] = system: Lissorhoptrus oryzophilus; test: Insecticidal activity against Lissorhoptrus oryzophilus in rice plants assessed as mortality at 10 ug treated as seed measured after 72 hr of feeding (reference value: 15 +/- 2.9%); type: functional
[4] = system: Lissorhoptrus oryzophilus; test: Insecticidal activity against Lissorhoptrus oryzophilus in rice plants assessed as mortality at 50 ug treated as seed measured after 72 hr of feeding (reference value: 15 +/- 2.9%); type: functional
[5] = system: Lissorhoptrus oryzophilus; test: Insecticidal activity against Lissorhoptrus oryzophilus in rice plants assessed as leaf consumption rate per day at 25 ug treated as seed measured after 72 hr of feeding (reference value: 8.3 +/- 0.7 mm'2 /day); type: functional
[6] = system: Lissorhoptrus oryzophilus; test: Insecticidal activity against Lissorhoptrus oryzophilus in rice plants assessed as leaf consumption rate per day at 50 ug treated as seed measured after 72 hr of feeding (reference value: 8.3 +/- 0.7 mm'2 /day); type: functional
[7] = system: Lissorhoptrus oryzophilus; test: Insecticidal activity against Lissorhoptrus oryzophilus in rice plants assessed as leaf consumption rate per day at 100 ug treated as seed measured after 72 hr of feeding (reference value: 8.3 +/- 0.7 mm'2 /day); type: functional
[8] = system: Lissorhoptrus oryzophilus; test: Insecticidal activity against Lissorhoptrus oryzophilus in rice plants assessed as leaf consumption rate per day at 10 ug treated as seed measured after 72 hr of feeding (reference value: 8.3 +/- 0.7 mm'2 /day); type: functional
[9] = system: Lissorhoptrus oryzophilus; test: Insecticidal activity against Lissorhoptrus oryzophilus in three to four-leaf stage rice plants assessed as mortality treated as seed measured after 72 hr of feeding; type: functional
[10] = system: Lissorhoptrus oryzophilus; test: Insecticidal activity against Lissorhoptrus oryzophilus in rice plants assessed as leaf consumption rate per day at 35 ug treated as seed measured after 72 hr of feeding (reference value: 8.3 +/- 0.5 mm'2 /day); type: functional
[11] = system: Lissorhoptrus oryzophilus; test: Insecticidal activity against Lissorhoptrus oryzophilus in rice plants assessed as mortality at 28 ug treated as seed measured after 72 hr of feeding (reference value: 3.8 +/- 1.8%); type: functional
[12] = system: Lissorhoptrus oryzophilus; test: Insecticidal activity against Lissorhoptrus oryzophilus in rice plants assessed as mortality at 21 ug treated as seed measured after 72 hr of feeding (reference value: 3.8 +/- 1.8%); type: functional
[13] = system: Lissorhoptrus oryzophilus; test: Insecticidal activity against Lissorhoptrus oryzophilus in rice plants assessed as leaf consumption rate per day at 7 ug treated as seed measured after 72 hr of feeding (reference value: 8.3 +/- 0.5 mm'2 /day); type: functional
[14] = system: Lissorhoptrus oryzophilus; test: Insecticidal activity against Lissorhoptrus oryzophilus in rice plants assessed as mortality at 14 ug treated as seed measured after 72 hr of feeding (reference value: 3.8 +/- 1.8%); type: functional
[15] = system: Lissorhoptrus oryzophilus; test: Insecticidal activity against Lissorhoptrus oryzophilus in two to three-leaf stage rice plants assessed as mortality treated as seed measured after 72 hr of feeding; type: functional
[16] = system: Lissorhoptrus oryzophilus; test: Insecticidal activity against Lissorhoptrus oryzophilus in five to six-leaf stage rice plants assessed as mortality treated as seed measured after 72 hr of feeding; type: functional, organism-based
[17] = system: Lissorhoptrus oryzophilus; test: Insecticidal activity against Lissorhoptrus oryzophilus in rice plants assessed as mortality at 7 ug treated as seed measured after 72 hr of feeding (reference value: 3.8 +/- 1.8%); type: functional
[18] = system: Lissorhoptrus oryzophilus; test: Insecticidal activity against Lissorhoptrus oryzophilus in rice plants assessed as leaf consumption rate per day at 28 ug treated as seed measured after 72 hr of feeding (reference value: 8.3 +/- 0.5 mm'2 /day); type: functional
[19] = system: Lissorhoptrus oryzophilus; test: Insecticidal activity against Lissorhoptrus oryzophilus in rice plants assessed as leaf consumption rate per day at 14 ug treated as seed measured after 72 hr of feeding (reference value: 8.3 +/- 0.5 mm'2 /day); type: functional
[20] = system: Lissorhoptrus oryzophilus; test: Insecticidal activity against Lissorhoptrus oryzophilus in rice plants assessed as mortality at 35 ug treated as seed measured after 72 hr of feeding (reference value: 3.8 +/- 1.8%); type: functional
[21] = system: Lissorhoptrus oryzophilus; test: Insecticidal activity against Lissorhoptrus oryzophilus in rice plants assessed as leaf consumption rate per day at 21 ug treated as seed measured after 72 hr of feeding (reference value: 8.3 +/- 0.5 mm'2 /day); type: functional

Structure (SMILES): CNC(=O)c1cc(Cl)cc(C)c1NC(=O)c1cc(Br)nn1-c1ncccc1Cl [CHLORANTRANILIPROLE]
- mortality [1]: 16.3%
- mortality [2]: 20%
- mortality [3]: 10%
- mortality [4]: 12.5%
- Activity [5]: 6.7 mm2
- Activity [6]: 7.3 mm2
- Activity [7]: 9.4 mm2
- Activity [8]: 8.3 mm2

Structure (SMILES): CN1COCN(Cc2cnc(Cl)s2)/C1=N\[N+](=O)[O-] [THIAMETHOXAM]
- LC50 [9]: 142 pg
- Activity [10]: 6.4 mm2
- mortality [11]: 42.5%
- mortality [12]: 28.8%
- Activity [13]: 6.9 mm2
- mortality [14]: 21.3%
- LC50 [15]: 447 pg
- Activity [16]: Active
- mortality [17]: 22.5%
- Activity [18]: 5.2 mm2
- Activity [19]: 6.6 mm2
- mortality [20]: 45%
- Activity [21]: 5.5 mm2
